{"source": "PubChem BioAssay AID652082", "about": "(The Scripps Research Institute Molecular Screening Center, 2013)", "target": "Kappa-type opioid receptor (Homo sapiens) (UniProt P41145)", "sequence (P41145 whole entry, looked up)": "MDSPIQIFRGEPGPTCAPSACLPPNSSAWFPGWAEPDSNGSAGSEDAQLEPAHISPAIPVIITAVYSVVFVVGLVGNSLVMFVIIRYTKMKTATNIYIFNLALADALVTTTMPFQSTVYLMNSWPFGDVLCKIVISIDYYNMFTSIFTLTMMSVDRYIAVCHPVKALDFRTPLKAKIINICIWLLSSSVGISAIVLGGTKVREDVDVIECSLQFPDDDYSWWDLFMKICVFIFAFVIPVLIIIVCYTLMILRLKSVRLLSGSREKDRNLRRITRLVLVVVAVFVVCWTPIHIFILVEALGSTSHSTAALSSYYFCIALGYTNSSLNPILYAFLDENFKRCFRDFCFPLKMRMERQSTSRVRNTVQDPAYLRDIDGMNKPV", "assay": "OPRK1 antagonists, confirmation, cell-based, fluorescence (AID 652082)", "settings": "OPRK1 cell line, fluorescence antagonist read-out; at 9 µM; hits give high values", "note": "Activity calls are given as the source filed them. How the calls were made is not given here.", "data": [{"smiles": "COc1ccc([N+](=O)[O-])c(S(=O)(=O)c2ccc(Cl)cc2)n1", "values": [{"measurement": "inhibition", "value": "18.1% (inactive)"}]}, {"smiles": "O=[N+]([O-])c1ccc(N/N=C2\\CCOc3ccc(F)cc32)cc1", "values": [{"measurement": "inhibition", "value": "25.4% (inactive)"}]}, {"smiles": "CCOC(=O)c1ccc(N2CC3CCCCN3C2c2cccc(OC)c2O)cc1", "note": "(stereo unspecified)", "values": [{"measurement": "inhibition", "value": "49% (inactive)"}]}, {"smiles": "O=C(Nc1ccc(Cl)cc1Cl)c1cc([N+](=O)[O-])cc2c1-c1ccc([N+](=O)[O-])cc1C2=O", "values": [{"measurement": "inhibition", "value": 59.2, "unit": "%"}]}, {"smiles": "O=C(NNC(=O)C(F)(F)F)c1ccc[nH]1", "values": [{"measurement": "inhibition", "value": "9.13% (inactive)"}]}, {"smiles": "O=C(O)C(F)(F)C(F)(F)C(=O)NCc1cccc(Cl)c1", "values": [{"measurement": "inhibition", "value": "0.14% (inactive)"}]}, {"smiles": "Clc1ccc2nc3c(nc2c1)Nc1ccccc1S3", "values": [{"measurement": "inhibition", "value": 80.7, "unit": "%"}]}, {"smiles": "C=CCNC(=S)NNC(=O)c1oc2nc(-c3ccc(Cl)cc3)cc(-c3ccccc3)c2c1N", "values": [{"measurement": "inhibition", "value": "11.6% (inactive)"}]}, {"smiles": "C#Cc1cccc(NC(=O)c2sc3nc4c(c(-c5cccs5)c3c2N)CCCC4)c1", "values": [{"measurement": "inhibition", "value": "31.7% (inactive)"}]}, {"smiles": "COC(=O)/C=C1\\SC(=Nc2ccc(Cl)cc2)N(c2ccc(Cl)cc2)C1=O", "values": [{"measurement": "inhibition", "value": 57.8, "unit": "%"}]}, {"smiles": "COc1ccccc1C1CCN(Cc2ccc3c(c2)CCC(C)(C)O3)CC1", "values": [{"measurement": "inhibition", "value": 59.5, "unit": "%"}]}, {"smiles": "CCOC(=O)c1cc(C(=O)OC)c(C)nc1N1CCC(NC2CCCCC2O)CC1", "note": "(stereo unspecified)", "values": [{"measurement": "inhibition", "value": 95.2, "unit": "%"}]}, {"smiles": "CCOC(=O)C1CCN(Cc2cccc(NC(=O)c3cccs3)c2)CC1", "values": [{"measurement": "inhibition", "value": "0.7% (inactive)"}]}, {"smiles": "O=[N+]([O-])c1ccc(-c2ccc(/C=N/NC(=S)Nc3cccc(F)c3)o2)cc1", "values": [{"measurement": "inhibition", "value": 60.3, "unit": "%"}]}, {"smiles": "CCOC(=O)[C@@H](N)CCSC", "values": [{"measurement": "inhibition", "value": "-3.43% (inactive)"}]}, {"smiles": "c1ccc(-c2cc3ncnc(NCc4ccc5c(c4)OCO5)c3s2)cc1", "values": [{"measurement": "inhibition", "value": "-5.98% (inactive)"}]}, {"smiles": "COC(=O)c1cnn(-c2ccc(Cl)cc2)c1C=C(C#N)C#N", "values": [{"measurement": "inhibition", "value": "3.67% (inactive)"}]}, {"smiles": "O=C(c1cnn(-c2ccc(Cl)cc2)c1C(F)(F)F)N1CCN(c2ncnc3ccsc23)CC1", "values": [{"measurement": "inhibition", "value": 79, "unit": "%"}]}, {"smiles": "COC(=O)c1ccc(/C=C2\\C(=O)Nc3ccccc32)n1-c1ccc(F)cc1", "values": [{"measurement": "inhibition", "value": "12% (inactive)"}]}, {"smiles": "CN(C)c1ccc(-n2nnnc2SCc2ccc(Cl)cc2)cc1", "values": [{"measurement": "inhibition", "value": "26% (inactive)"}]}, {"smiles": "CCCCCCCCCCCC(=O)ON1C(=O)CCC1=O", "values": [{"measurement": "inhibition", "value": "36.2% (inactive)"}]}, {"smiles": "N#Cc1cccnc1NNC(=O)COCC(=O)O", "values": [{"measurement": "inhibition", "value": 62.5, "unit": "%"}]}, {"smiles": "CCCCCC[n+]1ccccc1/C=C/c1ccc(N(C)C)cc1", "values": [{"measurement": "inhibition", "value": 79.5, "unit": "%"}]}, {"smiles": "CCN(CC)c1ccc(/C=C/c2ccc([N+](=O)[O-])cc2C#N)cc1", "values": [{"measurement": "inhibition", "value": "49.6% (inactive)"}]}, {"smiles": "CSc1sc(C(=O)NC(=O)Nc2ccc(Cl)cc2)c2c1-c1nocc1CC2", "values": [{"measurement": "inhibition", "value": "15.4% (inactive)"}]}, {"smiles": "O=C(N/C(=C\\c1ccc(-c2ccc([N+](=O)[O-])cc2)o1)c1nc2ccccc2[nH]1)c1ccccc1", "values": [{"measurement": "inhibition", "value": 58.7, "unit": "%"}]}, {"smiles": "N#Cc1cccc(C#N)c1Oc1ccc(N)cc1", "values": [{"measurement": "inhibition", "value": "-6.85% (inactive)"}]}, {"smiles": "CS(=O)(=O)/C(C#N)=C\\c1ccc(Cl)s1", "values": [{"measurement": "inhibition", "value": "4.17% (inactive)"}]}, {"smiles": "N#Cc1c(S/C=C(\\O)c2cc3ccccc3o2)nc2c(c1C(F)(F)F)CCCC2", "values": [{"measurement": "inhibition", "value": "15.3% (inactive)"}]}, {"smiles": "CN(C)c1cc(NC(=O)Nc2ccccc2)c2ccccc2n1", "values": [{"measurement": "inhibition", "value": "43.7% (inactive)"}]}, {"smiles": "CCOC(=O)C1CCN(Cc2cccc(NC(=O)c3ccco3)c2)CC1", "values": [{"measurement": "inhibition", "value": "35.5% (inactive)"}]}, {"smiles": "COc1ccccc1NC(=O)NCCN1CCN(Cc2ccccc2)CC1", "values": [{"measurement": "inhibition", "value": 59.6, "unit": "%"}]}, {"smiles": "O=[N+]([O-])c1ccc(C2=NN(c3ccccc3)C(c3ccco3)C2)cc1", "note": "(stereo unspecified)", "values": [{"measurement": "inhibition", "value": 82.9, "unit": "%"}]}, {"smiles": "CC(CCC(C)OC(=O)c1ccccc1C(=O)O)OC(=O)c1ccccc1C(=O)O", "note": "(stereo unspecified)", "values": [{"measurement": "inhibition", "value": "7.76% (inactive)"}]}, {"smiles": "CC(=O)N1CCC(C(=O)O/N=C(\\N)c2ccc(Cl)cc2)CC1", "values": [{"measurement": "inhibition", "value": "-11.1% (inactive)"}]}, {"smiles": "O=C1c2ccc(Cl)c3c(N4CCSCC4)ccc(c23)C(=O)N1c1ccccc1", "values": [{"measurement": "inhibition", "value": "9.35% (inactive)"}]}, {"smiles": "COc1cc([N+](=O)[O-])c(OC)cc1SCc1n[nH]c(=S)n1-c1ccc(C)cc1", "values": [{"measurement": "inhibition", "value": 73.3, "unit": "%"}]}, {"smiles": "O=[N+]([O-])c1c(Sc2ccc(Cl)cc2)ccc2nsnc12", "values": [{"measurement": "inhibition", "value": "37.2% (inactive)"}]}, {"smiles": "CC1COC(c2cccc([N+](=O)[O-])c2)N1", "note": "(stereo unspecified)", "values": [{"measurement": "inhibition", "value": "-9.85% (inactive)"}]}, {"smiles": "CCCCNc1ccc2c3c(cccc13)C(=O)N(CCCC)C2=O", "values": [{"measurement": "inhibition", "value": 76.8, "unit": "%"}]}, {"smiles": "Cn1c(=O)c2cc3cc(Cl)ccc3nc2c2c(=O)n(-c3ccccc3)c(=O)n(-c3ccccc3)c21", "values": [{"measurement": "inhibition", "value": 58.9, "unit": "%"}]}, {"smiles": "O=C(Nc1ccc(F)c(Cl)c1)c1cc(Br)ccc1O", "values": [{"measurement": "inhibition", "value": 62.9, "unit": "%"}]}, {"smiles": "O=c1c2cc(-c3ccccc3)sc2nnn1/N=C/c1cccs1", "values": [{"measurement": "inhibition", "value": "3.84% (inactive)"}]}, {"smiles": "Nc1c(C(=O)N/N=C/c2ccc3c(c2)OCO3)sc2nnc(-c3ccccc3)c(-c3ccccc3)c12", "values": [{"measurement": "inhibition", "value": 77.2, "unit": "%"}]}, {"smiles": "C=CCn1c(-c2sc3nnc(-c4ccccc4)c(-c4ccccc4)c3c2N)n[nH]c1=S", "values": [{"measurement": "inhibition", "value": "30.5% (inactive)"}]}, {"smiles": "CSc1ccc(/C=C/c2onc(C)c2[N+](=O)[O-])s1", "values": [{"measurement": "inhibition", "value": "23% (inactive)"}]}, {"smiles": "COc1ccc(OS(=O)(=O)c2sc(Br)cc2Br)cc1", "values": [{"measurement": "inhibition", "value": "36.2% (inactive)"}]}, {"smiles": "O=C(/C=C/c1cc(-c2ccccc2)c(C(F)(F)F)s1)c1cccs1", "values": [{"measurement": "inhibition", "value": "20.3% (inactive)"}]}, {"smiles": "Brc1ccc(-c2csc(Nc3ccncc3)n2)cc1", "values": [{"measurement": "inhibition", "value": "34.9% (inactive)"}]}, {"smiles": "Cc1ccc(/C=c2\\sc3nc4ccccc4n3c2=O)o1", "values": [{"measurement": "inhibition", "value": "5.32% (inactive)"}]}, {"smiles": "COc1cccc(C(=O)c2sc3nsc(SCc4ccc(F)cc4)c3c2N)c1", "values": [{"measurement": "inhibition", "value": "2.74% (inactive)"}]}, {"smiles": "O=C(Nc1ccc([N+](=O)[O-])cc1)Nc1csc(-c2cccnc2)n1", "values": [{"measurement": "inhibition", "value": "-2.3% (inactive)"}]}, {"smiles": "NC(=NC(=O)c1cccc(C(F)(F)F)c1)c1ccc(C(F)(F)F)cn1", "values": [{"measurement": "inhibition", "value": "41.2% (inactive)"}]}, {"smiles": "CC(=O)Nc1onc(C)c1-c1nc(-c2ccc(Cl)cc2Cl)cs1", "values": [{"measurement": "inhibition", "value": "-1.54% (inactive)"}]}, {"smiles": "S=C(NNc1c(Cl)cncc1Cl)Nc1ccc(Cl)cc1Cl", "values": [{"measurement": "inhibition", "value": "51.8% (inactive)"}]}, {"smiles": "COC(=O)c1cc(-c2ccc(OC)cc2)c(-c2ccc(OC)cc2)s1", "values": [{"measurement": "inhibition", "value": 68.6, "unit": "%"}]}, {"smiles": "O=[N+]([O-])c1ccc(N2CCc3ccccc32)cc1", "values": [{"measurement": "inhibition", "value": "17.4% (inactive)"}]}, {"smiles": "O=[N+]([O-])c1ccc(-c2ccc(/C=N/Nc3ccccc3)o2)cc1", "values": [{"measurement": "inhibition", "value": 82.8, "unit": "%"}]}, {"smiles": "Clc1ccc2c(Nc3ccc4c(c3)OCO4)ccnc2c1", "values": [{"measurement": "inhibition", "value": "30% (inactive)"}]}, {"smiles": "CC(=O)c1sc2nc(-c3cccs3)cc(C(F)(F)F)c2c1N", "values": [{"measurement": "inhibition", "value": "11.3% (inactive)"}]}, {"smiles": "Oc1c(Cl)cc(Cl)cc1C1Nc2cc(Cl)c(C(F)(F)F)cc2N1", "note": "(stereo unspecified)", "values": [{"measurement": "inhibition", "value": 58.8, "unit": "%"}]}, {"smiles": "O=[N+]([O-])c1ccc(N/N=C/c2ccc(-c3cccs3)s2)nc1", "values": [{"measurement": "inhibition", "value": 71.3, "unit": "%"}]}, {"smiles": "CCOC(=O)c1cn[nH]c1NC(=S)Nc1cccc(C(F)(F)F)c1", "values": [{"measurement": "inhibition", "value": "46.6% (inactive)"}]}, {"smiles": "Nc1c(C(=O)c2ccccc2)sc2nsc(SCCN3CCCC3)c12", "values": [{"measurement": "inhibition", "value": "43.2% (inactive)"}]}, {"smiles": "CN(C)c1cccc2c1c(NC(=O)Nc1ccc(OCc3ccccc3)cc1)nn2C", "values": [{"measurement": "inhibition", "value": 58.2, "unit": "%"}]}, {"smiles": "COc1cccc(/C=C(\\C#N)c2ccc([N+](=O)[O-])cc2)c1OC", "values": [{"measurement": "inhibition", "value": "34.5% (inactive)"}]}]}
